Laboratory results taken from PubChem BioAssay AID248 (DTP/NCI, 2004).
Where “and” joins values, the source holds several entries; their conditions need not be identical. Identical values can stand only once. Inconclusive results and toxic doses are left out.

Tested on: L1210 leukemia ip in BDF1 mice, survival T/C
Assay: NCI In Vivo Anticancer Drug Screen. Data for tumor model L1210 Leukemia (intraperitoneal) in B6D2F1 (BDF1) mice
Details: endpoint: mean survival time, higher = longer survival
Summary of the method: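 Survival endpoint. Drug-treated group vs vehicle group, expressed as T divided by C. Tumor passaged by transplantation.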

[1] = dose: 100.0 mg/kg/injection, schedule: Q01DX001 (ip), vehicle: saline
[2] = dose: 200.0 mg/kg/injection, schedule: Q01DX001 (ip), vehicle: saline
[3] = dose: 400.0 mg/kg/injection, schedule: Q01DX001 (ip), vehicle: saline
[4] = dose: 100.0 mg/kg/injection, schedule: Q04DX003 (ip), vehicle: saline with Tween-80
[5] = dose: 200.0 mg/kg/injection, schedule: Q04DX003 (ip), vehicle: saline with Tween-80
[6] = dose: 400.0 mg/kg/injection, schedule: Q04DX003 (ip), vehicle: saline with Tween-80

CC(O)Cc1c[nH]c(=O)[nH]c1=O (stereo unspecified)
T/C (dose: 100.0 mg/kg/injection, schedule: Q01DX009 (ip), vehicle: water): 98 % of control | T/C (dose: 100.0 mg/kg/injection, schedule: Q04DX003 (ip), vehicle: water): 94 % of control | T/C (dose: 200.0 mg/kg/injection, schedule: Q01DX009 (ip), vehicle: water): 107 % of control | T/C (dose: 200.0 mg/kg/injection, schedule: Q04DX003 (ip), vehicle: water): 98 % of control | T/C (dose: 400.0 mg/kg/injection, schedule: Q01DX009 (ip), vehicle: water): 96 % of control | T/C (dose: 400.0 mg/kg/injection, schedule: Q04DX003 (ip), vehicle: water): 93 % of control

COc1ccc(Nc2cc(N)nc(N)n2)c(=S)[nH]1
T/C (dose: 100.0 mg/kg/injection, schedule: Q04DX003 (ip), vehicle: saline): 97 % of control | T/C (dose: 200.0 mg/kg/injection, schedule: Q04DX003 (ip), vehicle: saline): 97 % of control | T/C (dose: 400.0 mg/kg/injection, schedule: Q04DX003 (ip), vehicle: saline): 93 % of control

C=CO
T/C [1]: 103 % of control | T/C [2]: 95 % of control | T/C [3]: 89 % of control

O=NN(CCCl)C(=O)Nc1ccccc1C(=O)O
T/C (dose: 6.0 mg/kg/injection, schedule: Q01DX001 (ip), vehicle: carboxymethylcellulose (CMC)): 121 % of control | T/C (dose: 9.0 mg/kg/injection, schedule: Q01DX001 (ip), vehicle: carboxymethylcellulose (CMC)): 156 % of control

O=C(O)CCCCCCCCCCCCCCCO
T/C [4]: 96 % of control | T/C [5]: 96 % of control | T/C [6]: 91 % of control

O=C1C(Br)C2CCC1C2C(=O)O (stereo unspecified)
T/C (dose: 100.0 mg/kg/injection, schedule: Q01DX009 (ip), vehicle: saline with Tween-80): 103 % of control | T/C [4]: 87 % of control | T/C (dose: 200.0 mg/kg/injection, schedule: Q01DX009 (ip), vehicle: saline with Tween-80): 89 % of control and 96 % of control | T/C [5]: 92 % of control | T/C (dose: 400.0 mg/kg/injection, schedule: Q01DX009 (ip), vehicle: saline with Tween-80): 100 % of control and 94 % of control | T/C [6]: 101 % of control

O=C(Cn1ccc(=O)[nH]c1=O)Nc1ccc(C(=O)O)cc1
T/C [1]: 96 % of control | T/C [2]: 111 % of control | T/C [3]: 96 % of control

O=C(NCCCl)Nc1cccc(C(F)(F)F)c1
T/C [4]: 104 % of control | T/C [5]: 107 % of control | T/C [6]: 113 % of control

COc1ccc(/C=N/O)c(C)c1OC
T/C [1]: 98 % of control | T/C [2]: 96 % of control | T/C [3]: 96 % of control

CC(C)CCCC(C)CCO (stereo unspecified)
T/C (dose: 50.0 mg/kg/injection, schedule: Q01DX009 (ip), vehicle: saline): 97 % of control | T/C (dose: 100.0 mg/kg/injection, schedule: Q01DX009 (ip), vehicle: saline): 105 % of control | T/C (dose: 200.0 mg/kg/injection, schedule: Q01DX009 (ip), vehicle: saline): 103 % of control

COc1cc2c(cc1OC)C(Cc1ccc(N)cc1)N(C)CC2 (stereo unspecified)
T/C (dose: 10.0 mg/kg/injection, schedule: Q01DX001 (ip), vehicle: saline): 87 % of control | T/C (dose: 20.0 mg/kg/injection, schedule: Q01DX001 (ip), vehicle: saline): 91 % of control | T/C (dose: 40.0 mg/kg/injection, schedule: Q01DX001 (ip), vehicle: saline): 94 % of control | T/C (dose: 80.0 mg/kg/injection, schedule: Q01DX001 (ip), vehicle: saline): 98 % of control

CCCC1C(=O)N2C(N(C)C)=Nc3ccc(C)cc3N2C1=O (stereo unspecified)
T/C (dose: 50.0 mg/kg/injection, schedule: Q01DX009 (ip), vehicle: carboxymethylcellulose (CMC)): 101 % of control | T/C [1]: 110 % of control | T/C (dose: 100.0 mg/kg/injection, schedule: Q01DX009 (ip), vehicle: carboxymethylcellulose (CMC)): 101 % of control | T/C [2]: 98 % of control | T/C (dose: 200.0 mg/kg/injection, schedule: Q01DX009 (ip), vehicle: carboxymethylcellulose (CMC)): 101 % of control | T/C [3]: 93 % of control | T/C (dose: 400.0 mg/kg/injection, schedule: Q01DX009 (ip), vehicle: carboxymethylcellulose (CMC)): 92 % of control
